Patent US20160017326A1, “MICRORNAS AS FUNCTIONAL MEDIATORS AND BIOMARKERS OF BONE METASTASIS” (THE TRUSTEES OF PRINCETON UNIVERSITY, priority 2013, published 2016)

Tests used:
[1] = tested on: Pu.1, Nfatc1, Ctsk in RAW264.7 cells; test: Western blot of Pu.1, Nfatc1, Ctsk after miRNA transfection and RANKL; type: cell-based, murine; settings: transient miRNA transfection, 50 ng/ml RANKL
Protocol: SDS lysis buffer (0.05 mM Tris-HCl, 50 mM BME, 2% SDS, 0.1% Bromophenol blue, 10% glycerol) was used to collect protein from cells. Samples were sonicated and heat denatured protein was equally loaded, separated on a 10% SDS-page gel, transferred onto a pure nitrocellulose membrane (BioRad), and blocked with 5% milk. Primary antibodies for immunoblotting included: anti-IκBα (1:1000 dilution, Cell signaling, 44D4), anti-p-p65 (1:500 dilution, Santa Cruz Biotechnology), anti-Pu.1 (5 μg/ml, Abcam, AB88082), anti-Nfatc1 (1 μg/ml, Abcam, AB25916), anti-Ctsk (4 μg/ml, Abcam, AB19027), anti-β-actin (1:5000 dilution, ABcam), for loading control. Membranes were incubated with horseradish peroxidase (HRP)-conjugated anti-mouse secondary antibody (1:2000 dilution, GE Healthcare) or anti-rabbit secondary antibody (1:2000 dilution, GE Healthcare) for 1 h and chemiluminescence signals were detected by ECL substrate (GE Healthcare).
To better examine the capacity of the miRNAs to inhibit osteoclast differentiation, osteoclast markers were examined in RAW264.7 cells transfected with the miRNA of interest, followed by RANKL treatment. FIG. 5F illustrates Western blot analysis for Pu.1, Nfatc1, or Ctsk in RAW264.7 cells after transient transfection with indicated miRNA and treatment with 50 ng/ml RANKL. Data in the figure represent average ±SEM; p values were based on Student's t-test.

RAW264.7 cells = test: In vitro bone resorption assay on bovine bone slices; type: cell-based, murine; settings: miRNA transfection, 50 ng/ml RANKL, relative to control cells
Protocol: 5×10^4 pre-osteoclast cells were seeded onto 1 mm thick slices of bovine bone cut using a diamond saw and sterilized by immersion in 70% ethanol. Cells were cultured for 10 days as indicated in 6-well plates, transferred to fresh plates and washed to remove osteoclasts. Bone slices were stained in a solution of 1% toludine blue in 0.5% sodium tetraborate, destained in PBS plus 1% Triton X-100, and imaged by light microscopy.
In vitro bone resorption assay was then used to measure the effect of ectopic miRNA expression on osteoclast activity. […] Referring to this figures, scale bar represents 200 μm. Results were statistically significant with p<0.01 (**) and p<0.001 (***). […] Since these miRNAs may inhibit osteoclast differentiation or function by targeting different mRNAs, the repression of osteoclast differentiation was further examined using combinations of inhibitory miRNAs. Given that transient transfection with 10 pM of miRNA precursors was sufficient to inhibit up to approximately 90% of osteoclast differentiation, RAW264.7 cells were treated with a combination of miRNAs at a reduced concentration of 1 pM total precursors.

Balb/c mice = test: Systemic pre-miRNA treatment of healthy mice: X-ray, microCT, histology; type: in vivo, mouse; settings: for osteoclast activity in vivo: intravenous injection; for number of osteoclasts relative to bone surface area (TRAP): 10 μg pre-miRNA i.v. weekly for four weeks
Description: Hindlimb bones were excised from mice at the end point of each experiment, immediately following X-ray and BLI. Hind limb bones were fixed in 10% neutral-buffered formalin, washed and decalcified in a solution of 10% EDTA for 2 weeks. One limb from each mouse was stored in 70% ethanol for μCT analysis and Von Kossa staining, while the other limb was embedded in paraffin for hematoxylin and eosin (H&E), tartrate-resistant acid phosphatase (TRAP), or immunohistochemical staining. Non-decalcified sections were embedded in resin using the Osteo-bed Bone Embedding Kit (Sigma Aldrich, EM0200) before sectioning, followed by Von Kossa staining. Briefly, sections were rehydrated to H2O, followed by submersion in 1% silver nitrate and exposure to UV light for 5 minutes. Sections were then incubated in 2.5% Sodium Thiosulphate, followed by counterstaining with Nuclear Fast Red and dehydration through Xylene. Histomorphometric analysis was performed on H&E stained bone metastasis sections using the Zeiss Axiovert 200 microscope and the AxioVision software version 4.6.3 SP1. For quantitative analysis of lesion area, a 5× objective was used to focus on the tumor region of interest and images were acquired using an AxioCamICc3 camera set to an exposure of 50 ms. Lesions that were larger than the field of view were quantified by acquiring multiple images to encompass the entire lesion and combined in Adobe Photoshop CS5. Lesion area was quantified by outlining the region(s) of interest and quantifying lesion area. Osteoclast number was assessed as multinucleated TRAP^+ cells along the tumor-bone interface and reported as number/mm of interface as previously reported (Sethi et al., 2011). Immunohistochemical analysis was performed with heat-induced antigen retrieval and an osteocalcin antibody (ABcam, AB93876). A biotinylated secondary antibody was used with Vectastain ABC Kit (Vector Laboratories) and DAB detection kit (Zymed) to reveal the positively stained cells; nuclei were counterstained with hematoxylin
Anesthetized mice were placed on singlewrapped films (X-OMAT AR, Eastman Kodak) and exposed to X-ray radiography at 35 kV for 15 s using a MX-20 Faxitron instrument. Films were developed using a Konica SRX-101A processor. Changes in bone remodeling and osteolytic lesions (radiolucent lesions) in the hindlimbs of mice were identified and quantified using the ImageJ software (National Institutes of Health)
Femurs and tibias were scanned using the INVEON PET/CT (Siemens Healthcare) at the Preclinical Imaging Shared Resource of Cancer Institute of New Jersey. The X-Ray tube settings were 80 kV and 500 μA and images were acquired at the highest resolution without CCD binning, resulting in a voxel size of 9.44 μm. A 0.66° rotation step through a 195° angular range with 6500 msec exposure was used. The images were reconstructed with Beam Hardening Correction and Hounsfield calibration before being analyzed using the INVEON Research Workplace software (Siemens Healthcare). After processing with a 3D Gaussian filter to reduce noise ROI's were manually segmented that corresponded to the cortical and trabecular bone regions. Cortical regions of interest comprised of 470 μm thick regions (50 slices, 9.4 μm thickness for each slice) located 3 mm distal to the growth plate, while 300 μm thick trabecular sections began 0.27 mm distal to the growth plate.
To evaluate the capacity for these miRNAs to inhibit mouse osteoclast function in vivo, 10 μg of pre-miRNA were injected into the lateral tail-vein of Balb/c mice weekly for four weeks. […] FIG. 6A illustrates representative X-ray, μCT and histological images for TRAP, H&E, Von Kossa, or osteocalcin staining of bones from mice treated with miR-33a, miR-133a, miR-141, miR-190 and miR-219 compared to non-treated control. Regions of interest for trabecular and cortical bone scan and analysis are marked by dashed lines. Scale bar indicates 200 μm, n=6. […]

Substance | expression of Pu.1, Nfatc1, Ctsk (Western blot) [1] | bone resorption (osteoclast activity) (RAW264.7 cells) | osteoclast activity in vivo (Balb/c mice) | number of osteoclasts relative to bone surface area (TRAP) (Balb/c mice)
miR-133a: miRNA, SEQ ID NO: 61; delivered as pre-miRNA precursor; targets Mitf and Mmp14 (UUUGGUCCCCUUCAACCAGCUA; delivered as pre-miRNA precursor, chemistry not given here; listed as Homo sapiens) | inhibited early osteoclast differentiation, with minimal expression of Nfatc1 | dramatically limited osteoclast activity | significantly reduced | 
miR-141: miRNA, SEQ ID NO: 69; delivered as pre-miRNA precursor; targets Mitf and Calcr (UAACACUGUCUGGUAACGAUGU; delivered as pre-miRNA precursor, chemistry not given here; listed as Homo sapiens) | inhibited early osteoclast differentiation, with minimal expression of Nfatc1 | dramatically limited osteoclast activity | significantly reduced | significant decrease
miR-190: miRNA, SEQ ID NO: 64; delivered as pre-miRNA precursor; targets Calcr (UGAUAUGUUUGAUAUAUUAGGU; delivered as pre-miRNA precursor, chemistry not given here; listed as Homo sapiens) | expressed Pu.1 and Nfatc1, but not Ctsk | dramatically limited osteoclast activity | significantly reduced | 
miR-219: miRNA, SEQ ID NO: 66; delivered as pre-miRNA precursor; targets Mitf and Traf6 (UGAUUGUCCAAACGCAAUUCU; delivered as pre-miRNA precursor, chemistry not given here; listed as Homo sapiens) | inhibited early osteoclast differentiation, with minimal expression of Nfatc1 | dramatically limited osteoclast activity | significantly reduced | significant decrease
